The text below walks through data of US20260199484A1, “PROTAC DEGRADERS OF MLLT1 AND/OR MLLT3” (DARK BLUE THERAPEUTICS LTD, priority 2024, published 2026).

The test system of experiment [1] is MV4-11 cells. In words: MV4-11 cellular proliferative assay, Assay Format A (CellTiter-Glo, 120 h). Format: cell-based. Conditions: Homo sapiens, Assay method A, Table 3, read-out: MV4-11 antiproliferative IC50. An outline of the steps:
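MV4-11 cells seeded at 50 cells/well and exposed for 120 h to compound (10 semi-log dilutions, top 30 μM) or DMSO. Viability by CellTiter-Glo luminescence, normalised to DMSO and reference-compound wells; AC50 from Hill fit.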

In experiment [2] the target is T1, MLLT1 (Homo sapiens, UniProt Q03111).
T1 sequence (Q03111 1-559): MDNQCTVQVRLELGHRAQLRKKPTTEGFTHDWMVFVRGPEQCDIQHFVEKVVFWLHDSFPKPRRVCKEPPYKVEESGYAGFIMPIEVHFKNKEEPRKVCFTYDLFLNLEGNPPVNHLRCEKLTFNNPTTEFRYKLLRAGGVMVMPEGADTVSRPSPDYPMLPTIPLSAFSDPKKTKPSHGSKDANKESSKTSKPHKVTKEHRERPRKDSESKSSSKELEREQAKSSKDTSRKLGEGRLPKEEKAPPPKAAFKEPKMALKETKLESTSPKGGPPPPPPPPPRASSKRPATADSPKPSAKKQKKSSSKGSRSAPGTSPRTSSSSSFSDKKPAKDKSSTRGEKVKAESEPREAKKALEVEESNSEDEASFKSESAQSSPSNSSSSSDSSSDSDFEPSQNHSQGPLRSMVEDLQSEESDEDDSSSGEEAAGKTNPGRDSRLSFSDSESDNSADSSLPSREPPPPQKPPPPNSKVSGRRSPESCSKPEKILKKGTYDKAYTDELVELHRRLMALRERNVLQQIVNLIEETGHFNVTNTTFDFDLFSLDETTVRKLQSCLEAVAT
In words: MLLT1 HTRF IC50 determination assay (H3K9cro peptide displacement). Format: binding. An excerpt: (§1) This procedure is intended to measure the interaction between YEATS proteins and histone peptides modified by an appropriate epigenetic mark and can be used to assay compounds which bind to the YEATS proteins and inhibit this interaction. The assay uses 6His tagged MLLT1 or MLLT3 with an anti-6His antibody conjugated with Eu^3+ chelate (donor) and a biotinylated peptide with Streptavidin conjugated XL-665 (acceptor). When the donor and acceptor labels are in close proximity, by binding of the peptide by MLLT1 or MLLT3, the excitation of the donor (337 nm) triggers a Fluorescence Resonance Energy Transfer (FRET) to the acceptor which then fluoresces at specific wavelength (665 nm).
(§2) This step optimises the protein/peptide ratio that will be used in HTRF screening assay in order to allow the best signal-to-noise ratio. Each new purified protein should be titrate this way as the signal-to-noise ratio may differ from different protein batches. Displacement assay for MLLT1 and MLLT3 was performed by using H3K9 cro peptide (ARTKQTAR(Kcrot)STGGKAPRKQLYK(biotin)).
(§3) A serial dilution of 4× solution of biotinylated peptide was prepared in assay buffer (25 mM HEPES, 20 mM NaCl, 0.05% BSA, 0.05% Tween-20, pH 7.0) covering concentrations from 3.2 μM to 0.2 nM. and 5 μL of each dilution were transferred horizontally to fill 15 columns of a white ProxiPlate-384 Plus shallow well Microplate (Perkin Elmer, USA). A sixteenth column of buffer was also included for a background reference. In parallel, a serial dilution of the 6His-tag protein of interest was prepared in the same way and 5 μL of each dilution were vertically added to the wells containing the peptide dilutions. Buffer has been transferred to the last line of the plate in order to make a no-protein reference. The microplate has been covered and incubated 1 hour at room temperature. A 2× detection mix was prepared in assay buffer by diluting streptavidin conjugated with XL-665 (610SAXLB, Cisbio Bioassays, France) to 1/2000 and anti-6His(Eu) chelate (LANCE Eu-W1024 Anti-6×His, ADO111, Perkinelmer LAS (UK)LTD) to 1/20000, 10 μL were added to each well and the plate has been incubated for 1 to 24 hours at room temperature in the dark. The plate was read in the Pherastar using the HTRF module with dual emission protocol (A=ex. 320 nm em. 665 nm, B=ex. 320 nm em. 620 nm).
(§4) The HTRF ratio was calculated as channel A/B*10000 and the specific signal as follow: specific signal=HTRF Ratio Positive signal—HTRF Ratio Negative signal (without protein). The concentrations of protein and peptide that allow the maximum specific signal without saturation were selected to perform HRTF screening assay described below.
(§5) The compounds were dissolved in DMSO at a stock concentration of 10 mM and dispensed into microplate using the Echo acoustic liquid handler (Labcyte, Beckman Coulter, USA). The assay covers a window of compound concentrations from 20 μM to 20 nM spread in 11 data points in duplicate. Solvent and compound controls were added to each plate in order to calculate the background signal.
(§6) Ten microliters of 2× mix of 6His-protein and biotinylated peptide, the concentrations were determined above, were added to the dispensed compounds and incubated for one hour at room temperature in the dark. Ten microliters of the 2× detection mix was added to each well and the plate was incubated for another hour at room temperature in the dark and the plate was read in order to calculate the HTRF specific signal. The % inhibition values as follows:
(§7) The IC50 values were determined by plotting % inhibition vs compound concentration and fitting the data to a non-linear sigmoidal dose response equation (4 parameter fit): […]
On the technique in general: In TR-FRET formats the signal depends on donor and acceptor labels being close together.

Experiment [3] concerns the target T2, MLLT3 (Homo sapiens, UniProt P42568).
T2 sequence (P42568 1-568): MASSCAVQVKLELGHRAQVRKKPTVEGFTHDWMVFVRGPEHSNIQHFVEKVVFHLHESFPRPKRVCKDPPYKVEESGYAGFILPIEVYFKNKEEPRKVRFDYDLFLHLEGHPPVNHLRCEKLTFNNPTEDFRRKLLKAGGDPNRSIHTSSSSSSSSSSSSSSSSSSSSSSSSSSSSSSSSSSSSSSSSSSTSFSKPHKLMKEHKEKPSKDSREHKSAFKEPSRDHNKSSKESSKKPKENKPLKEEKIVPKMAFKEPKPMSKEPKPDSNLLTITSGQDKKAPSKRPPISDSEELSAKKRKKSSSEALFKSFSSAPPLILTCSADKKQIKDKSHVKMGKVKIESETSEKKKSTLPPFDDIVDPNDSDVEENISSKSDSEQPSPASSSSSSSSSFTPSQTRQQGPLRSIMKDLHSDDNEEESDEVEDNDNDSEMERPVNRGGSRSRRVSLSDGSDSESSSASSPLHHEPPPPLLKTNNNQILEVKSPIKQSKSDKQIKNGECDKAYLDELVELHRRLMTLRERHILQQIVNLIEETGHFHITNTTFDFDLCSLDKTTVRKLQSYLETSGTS
In words: MLLT3 HTRF IC50 determination assay (H3K9cro peptide displacement). Format: binding.
Description: as §1, §2, §3, §4, §5, §6, §7

Experiment [4] deals with MV4-11 cells. Briefly: MV4-11 cellular proliferative assay, Assay Format B (CTG 2.0, 168 h). Type of experiment: cell-based. As to conditions: Homo sapiens, Assay Method B, Table 7, read-out: MV4-11 Antiproliferation IC50. The method, boiled down: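 Cells seeded at 600/well in IMDM + 10% FBS, incubated overnight, then exposed 168 h (7 days) at 37 °C to 10 concentrations, 3-fold dilutions from 1 uM or 100 nM top dose (0.3% DMSO final). Viability by CTG 2.0 luminescence as % of DMSO control; curves fitted by four-parameter logistic regression.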

Experiment [5] has as its target T1, MLLT1. Briefly: MLLT1 DC50 and Dmax determination in MV4-11 cells (JESS, 4 h). Type of experiment: cell-based. Also on record: endogenous in cells; host or cells: MV4-11 (ATCC CRL-9591). Conditions: MLLT1 degradation. On the procedure: MLLT1 degradation efficacy of compounds was tested in an automated chemiluminescent detection system (JESS, Cat #004-650). MV4-11 (#CRL-9591, ATCC) were seeded at a density of 1.2 million cells/well in a non-treated 6-well cell culture plate in 2.4 mL of complete medium (IMDM+10% FBS+1× Penicillin-Streptomycin). 10 mM DMSO stocks were prepared, and cells were treated with eight concentrations of test compounds, starting from 100 nM, 5-fold dilution, at a final DMSO concentration of 0.1% and incubated for 4 h at 37° C., 5% CO2. Post incubation, cells were centrifuged, washed with HBSS and lysed in 60 μL of RIPA buffer supplemented with Protease inhibitors (sc-24948; Santa Cruz). Protein estimation was done using BCA protein assay kit (23228; Pierce). 4 gg protein lysate (4 μL of 1 μg/μL lysate) was loaded into each well of the JESS cartridge (SM-W004; Bio-techne) and the JESS run was performed using 1:900 dilution of anti-human MLLT1 antibody (ABE2596; Merck) and 1:1200 dilution of anti-human GAPDH antibody (2118; Cell signaling technology) with anti-rabbit secondary detection module (DM-001; Bio-Techne). Post run, data was analysed using “Compass for SW” software for chemiluminescent detection. Peak fit was done using “dropped lines” method. Peak area for MLLT1 and GAPDH was used for the calculation of MLLT1 degradation with respect to DMSO control. Data was shown as “% degradation”. % Degradation was plotted against the respective doses (test compound concentration) and dose-response curve (DRC) was generated using four-parameter logistic equation (non-linear regression). Following parameters for each DRC was captured: DC50 (concentration in nM at which degradation is 50%, interpolated from standard curve and transformed to linear scale), Dmax (maximum % degradation observed). DC50 and Dmax data are captured in Table 7 for Example 1 and Example 110, which is a comparative example.

For orientation: DC50 means the concentration giving 50% degradation. Read a low DC50 as degradation at low concentration. Broadly, the Dmax is the largest share of the target that was removed. Read a high Dmax as a fuller loss of target.

Take `Cc1nn(C)c2cc(C(=O)Nc3cc4[nH]c([C@H]5CCCN5C)cc4cn3)ccc12` (single isomer, unassigned) [Example 76]: the IC50 in experiment [1] is 0.04 µM; in experiment [2] (Table 5) it was 0.043 µM; in experiment [2] (category, Table 4), ≤ 0.1 µM; in experiment [3] (Table 5), 0.081 µM; in experiment [3] (category, Table 4), ≤ 0.1 µM.
Consider `Cc1nc(NC(=O)c2ccc3c(C)nn(C)c3c2)cc2[nH]c(C3CCCN3C)cc12` (single isomer, unassigned) [Example 93, 1,3-dimethyl-N-{4-methyl-2-[(rel-2S)-1-methylpyrrolidin-2-yl]-1H-pyrrolo[3,2-c]pyridin-6-yl}indazole-6-carboxamide], for which the IC50 in experiment [2] (category, Table 4) lay in the range of 1 to 10 µM; in experiment [3] (category, Table 4), 1 to 10 µM.
`Cc1nn(C)c2cc(C(=O)Nc3cc4[nH]c([C@H]5CCCN5C)c(Cl)c4cn3)ccc12` [Example 80, N-{3-chloro-2-[(2R)-1-methylpyrrolidin-2-yl]-1H-pyrrolo[3,2-c]pyridin-6-yl}-1,3-dimethylindazole-6-carboxamide]: the IC50 in experiment [2] (Table 5) was 0.006 µM; in experiment [2] (category, Table 4), ≤ 0.1 µM; in experiment [3] (Table 5) it was 0.022 µM; in experiment [3] (category, Table 4), ≤ 0.1 µM.
Take `Cc1nn(C)c2cc(C(=O)Nc3cc4[nH]c([C@@H]5CCCN5C)c(Cl)c4cn3)ccc12` [Example 81, N-{3-chloro-2-[(2S)-1-methylpyrrolidin-2-yl]-1H-pyrrolo[3,2-c]pyridin-6-yl}-1,3-dimethylindazole-6-carboxamide]: the IC50 was in the range of 0.1 to 1 µM in experiment [2] (category, Table 4) and 1 to 10 µM in experiment [3] (category, Table 4).
For `Cc1nn(CCCCCCCC#Cc2cccc3c2CN(C2CCC(=O)NC2=O)C3=O)c2cc(C(=O)Nc3cc4[nH]c(CN5CCCC5)cc4cn3)ccc12` (stereo not shown) [Example 110, 1-(9-(2-(2,6-dioxopiperidin-3-yl)-1-oxoisoindolin-4-yl)non-8-yn-1-yl)-3-methyl-N-(2-(pyrrolidin-1-ylmethyl)-1H-pyrrolo[3,2-c]pyridin-6-yl)-1H-indazole-6-carboxamide], the IC50 in experiment [4] was > 1 µM. This molecule also returned a DC50 in experiment [5] of 0.041 µM. For the same molecule, the Dmax in experiment [5] (maximum % degradation observed) was determined as 58%.
